Values of other authors, collected in US11077086B2, “Solid dosage form composition for buccal or sublingual administration of cannabinoids” (PHARMACEUTICAL PRODUCTIONS, INC., priority 2014, dated 2021).

Test system: cannabinoid receptor

In the case of `C=C(C)[C@@H]1CCC(C)=C[C@H]1c1c(O)cc(CCCCC)cc1O` [cannabidiol (CBD), cannabidiol], the “affinity for the cannabinoid receptor” value is given as “do not have significant affinity”.
